The subject of one data set is Pseudomonas aeruginosa. As to the method:
(§1) The antimicrobial activity of synthetic piscidin 1, piscidin 2 and piscidin 3 (P1, P2 and P3) was tested against a variety of different bacteria.

The test system of another data set is Aeromonas hydrophilia. In kind it is cell-based. How it is done:
as §1

The test system of the next data set is Enterococcus gallinarum. Type of data set: cell-based. How it is done: as §1
Another data set deals with Escherichia coli. How it is done:
as §1

The next data set deals with Staphylococcus aureus. As to the method:
as §1

A further data set concerns Enterococcus faecium. In kind it is cell-based. Conditions: Case 00-1437, vancomycin resistant, vanA; MHB. As to the method: as §1
In data set [1] the test system is Staphylococcus epidermidis. In kind it is cell-based. As to the method:
as §1

The subject of the next data set is Streptococcus iniae. Type of data set: cell-based. As to the method: as §1
The next data set concerns bacteria. Kind of data set: Antibacterial activity of synthetic SEQ ID NO: 4 sequence. In kind it is cell-based. Conditions: synthetic sequence with tryptophan as X. From the text:
[SEQ ID NO: 4], where X is tryptophan or beta-hydroxytryptophan. It is tentatively believed that beta-hydroxytryptophan is present as X in the natural sequence.

For another data set, the system named is human pathogens. Kind of data set: Activity of dimeric peptide against human pathogens. In kind it is cell-based. An excerpt: (§2) where CC is linked via a disulfide bridge.
The format of data set [2] is cell-based.
Text: as §2

≈ marks a conversion by molar mass, not a printed value. Residues, ends and D or L forms follow the SMILES beside them. No end group written: not given here.

`CC[C@H](C)[C@H](NC(=O)CNC(=O)[C@H](CCCNC(=N)N)NC(=O)[C@H](Cc1ccccc1)NC(=O)[C@@H](NC(=O)[C@H](Cc1c[nH]cn1)NC(=O)[C@H](Cc1c[nH]cn1)NC(=O)[C@H](Cc1ccccc1)NC(=O)[C@@H](N)Cc1ccccc1)[C@@H](C)CC)C(=O)N[C@H](C(=O)N[C@@H](Cc1c[nH]cn1)C(=O)N[C@H](C(=O)NCC(=O)N[C@@H](CCCCN)C(=O)N[C@H](C(=O)N[C@H](C(=O)N[C@@H](Cc1c[nH]cn1)C(=O)N[C@@H](CCCNC(=N)N)C(=O)N[C@@H](CC(C)C)C(=O)N[C@H](C(=O)N[C@H](C(=O)NCC(N)=O)[C@@H](C)O)C(C)C)[C@@H](C)CC)[C@@H](C)O)C(C)C)C(C)C` [P1] (H-FFHHIFRGIVHVGKTIHRLVTG-NH2; N-terminus assumed): the figures for the MBC in the data set with Pseudomonas aeruginosa, against Aeromonas hydrophilia and in the data set with Enterococcus gallinarum were 12.5 µg/mL (≈ 4.86 µM), 0.79 to 1.57 µg/mL and 12.5 µg/mL (≈ 4.86 µM), respectively. Besides, the minimal inhibitory concentration (MIC) (commonly the smallest concentration in the dilution series that meets the test's criterion for growth inhibition) against Pseudomonas aeruginosa was 12.5 µg/mL (≈ 4.86 µM); against Aeromonas hydrophilia it was 0.79 to 1.57 µg/mL; against Enterococcus gallinarum, 12.5 µg/mL (≈ 4.86 µM).

As to `CC[C@H](C)[C@H](NC(=O)CNC(=O)[C@H](CCCNC(=N)N)NC(=O)[C@H](Cc1ccccc1)NC(=O)[C@@H](NC(=O)[C@H](Cc1c[nH]cn1)NC(=O)[C@H](Cc1c[nH]cn1)NC(=O)[C@@H](NC(=O)[C@@H](N)Cc1ccccc1)[C@@H](C)CC)[C@@H](C)CC)C(=O)N[C@H](C(=O)N[C@@H](Cc1c[nH]cn1)C(=O)N[C@@H](C)C(=O)NCC(=O)N[C@@H](CCCNC(=N)N)C(=O)N[C@@H](CO)C(=O)N[C@H](C(=O)NCC(=O)N[C@@H](CCCNC(=N)N)C(=O)N[C@@H](Cc1ccccc1)C(=O)N[C@@H](CC(C)C)C(=O)N[C@H](C(=O)NCC(N)=O)[C@@H](C)O)[C@@H](C)CC)C(C)C` [P3] (H-FIHHIFRGIVHAGRSIGRFLTG-NH2; N-terminus assumed), the minimum bactericidal concentration (MBC) – broadly, the smallest concentration meeting the test's criterion for killing – was 3.13 µg/mL (≈ 1.26 µM) with Escherichia coli; 25 µg/mL (≈ 10 µM) against Pseudomonas aeruginosa; 3.13 µg/mL (≈ 1.26 µM) in the data set on Staphylococcus aureus; 1.57 to 3.13 µg/mL against Aeromonas hydrophilia; 50 µg/mL (≈ 20.1 µM) in the data set on Enterococcus gallinarum; 3.13 µg/mL (≈ 1.26 µM) with Streptococcus iniae. Further, the MIC against Escherichia coli was 3.13 µg/mL (≈ 1.26 µM); in the data set on Pseudomonas aeruginosa, 25 µg/mL (≈ 10 µM); against Staphylococcus aureus it was 3.13 µg/mL (≈ 1.26 µM); against Aeromonas hydrophilia, 1.57 to 3.13 µg/mL; against Enterococcus faecium, 3.13 to 6.25 µg/mL; with Enterococcus gallinarum, 50 µg/mL (≈ 20.1 µM). In addition, the MIC (in [1]; in the data set on Streptococcus iniae) was 3.13 µg/mL (≈ 1.26 µM) each time.

As to “FFRHLFRGAKAIFRGARQGXRAHKVVSRYRNRDVPETDNNQEEP [SEQ ID NO: 4, Endobiotic Family 2 peptide, about 5329 Da, X is tryptophan or beta-hydroxytryptophan]”, in the data set on bacteria, the antibacterial activity result was “potent antibacterial activity”.

Take “HVIGRFIHHFFCCFFHHIFRGIVH (cysteine pairing not given here; also: dimer) [SEQ ID NO: 6]”: the “activity against several human pathogens” value with human pathogens is “active against several human pathogens”. For the same molecule, in data set [2], the hemolytic activity entry is given as “no detectable hemolytic activity”.
